What follows are compounds tested against T1, WT/R232 STING protein (Homo sapiens, UniProt Q86WV6, H232R) (assay: Luciferase reporter assay in HEK293T-hSTING-Luciferase cells (R232)). Conditions: 20 hr stimulation, EC50 range.
T1 construct: host or cells: HEK293T
T1 sequence (Q86WV6 whole entry H232R): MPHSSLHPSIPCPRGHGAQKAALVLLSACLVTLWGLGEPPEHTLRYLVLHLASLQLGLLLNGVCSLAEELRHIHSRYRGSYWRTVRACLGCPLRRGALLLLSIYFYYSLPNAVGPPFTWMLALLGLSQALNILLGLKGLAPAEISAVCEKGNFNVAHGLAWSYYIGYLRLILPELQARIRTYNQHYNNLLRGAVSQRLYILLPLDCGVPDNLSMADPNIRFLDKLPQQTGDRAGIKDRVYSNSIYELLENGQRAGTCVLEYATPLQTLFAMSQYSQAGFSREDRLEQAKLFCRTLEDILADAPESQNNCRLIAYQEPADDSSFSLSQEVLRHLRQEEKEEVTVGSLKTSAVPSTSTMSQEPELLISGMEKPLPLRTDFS
Type: cell-based
Excerpt: • a) Stable STING expressing cells—Stable HEK293T STING-expressing cell lines were generated using plasmids purchased from Invivogen, CA, USA, that contain STING cDNA cloned into the pUNO-1 vector under hEF1-HTLV promoter and containing the Blasticidin selection cassette. The plasmids hSTING (R232), hSTING (H232), hSTING (HAQ) were directly procured from Invivogen while hSTING (AQ) and hSTING (Q) were derived from hSTING (HAQ) and hSTING (R232) plasmids respectively by using a PCR based site directed mutagenesis method. These vectors were individually transfected into HEK293T cells using Lipofectamine (Invitrogen) and transfected cells were selected under Blasticidin selection. These transfected cells were further subjected to clonal selection using the limiting dilution method to obtain clonally pure populations of HEK cells transfected with each of the above mentioned human STING variants. Only those clones were selected in which ligand independent activation of STING was minimal. • b) Stable Luciferase reporter gene expressing cells—Stable HEK293T Luciferase reporter gene expressing cell lines were generated using pCDNA4 plasmids under an IRF-inducible promoter. This promoter is comprised of five tandem interferon-stimulated response elements (ISRE) fused to an ISG54 minimal promoter. This vector was transfected into HEK293T cells using Lipofectamine (Invitrogen) and transfected cells were selected under Zeocin selection. These transfected cells were further subjected to clonal selection using the limiting dilution method to obtain clonally pure populations of HEK cells transfected the Luciferase reporter construct. Only those clones were selected in which ligand independent induction of luciferase was minimal.
5×10^5 clonally selected HEK293T-hSTING-Luciferase cells were seeded in 384-well plates in growth medium and stimulated with novel compounds. After 20 hr of stimulation supernatant were removed and secretary reporter gene activity were measured using the Quanti-Luc detection system (Invivogen) on a Spectramax i3X luminometer.
All compounds were first tested in a primary screen using WT/R232 STING protein to obtain a ‘fold-induction’ over baseline levels of protein activity.
With `Cc1cccc(CNC(=O)c2ccc3c(c2)N(Cc2cc(F)cc(F)c2)C(=O)C3(C)C)n1` [Example 28, 1-(3,5-difluorobenzyl)-3,3-dimethyl-N-((6-methylpyridin-2-yl)methyl)-2-oxoindoline-6-carboxamide] the EC50 was over 10 µM. Compound `CC1(C)C(=O)N(Cc2ccc(F)c(F)c2)c2cc(C(=O)NCc3ccco3)ccc21` [Example 46, 1-(3,4-difluorobenzyl)-N-(furan-2-ylmethyl)-3,3-dimethyl-2-oxoindoline-6-carboxamide] has an EC50 of 1 to 10 µM. With `CC1(C)C(=O)N(Cc2cc(F)cc(F)c2)c2cc(C(=O)NCc3ccc(F)cc3)cnc21` [Example 198, 1-(3,5-difluorobenzyl)-N-(4-fluorobenzyl)-3,3-dimethyl-2-oxo-2,3-dihydro-1H-pyrrolo[3,2-b]pyridine-6-carboxamide] the EC50 was 1 to 10 µM. For `CC1(C)C(=O)N(Cc2ccccc2F)c2cc(C(=O)N(CC(=O)O)Cc3ccco3)ccc21` [Example 3, 2-(1-(2-fluorobenzyl)-N-(furan-2-ylmethyl)-3,3-dimethyl-2-oxoindoline-6-carboxamido)acetic acid], the EC50 was over 10 µM. In the case of `CC1(C)c2ccc(C(=O)NCc3c(F)cc(F)cc3F)cc2N(Cc2c(F)cccc2Cl)S1(=O)=O` [Example 134, 1-(2-Chloro-6-fluorobenzyl)-3,3-dimethyl-N-(2,4,6-trifluorobenzyl)-1,3-dihydrobenzo[c]isothiazole-6-carboxamide 2,2-dioxide], the EC50 is reported as over 10 µM. In the case of `Cc1nc(CN2C(=O)C(C)(C)c3ccc(C(=O)NCc4c(F)cc(F)cc4F)cc32)co1` [Example 83, 3,3-dimethyl-1-((2-methyloxazol-4-yl)methyl)-2-oxo-N-(2,4,6-trifluorobenzyl)indoline-6-carboxamide], the EC50 is reported as over 10 µM. Compound `Cn1nccc1CN1C(=O)C(C)(C)c2ccc(C(=O)NCc3c(F)cc(F)cc3F)cc21` [Example 77, 3,3-dimethyl-1-((1-methyl-1H-pyrazol-5-yl)methyl)-2-oxo-N-(2,4,6-trifluorobenzyl)indoline-6-carboxamide] has an EC50 of 1 to 10 µM. Compound `COC1(C)C(=O)N(Cc2c(F)cccc2Cl)c2cc(C(=O)NCc3c(F)cc(F)cc3F)ccc21` (centres unmarked) [Example 151] has an EC50 of 1 to 10 µM. Compound `O=C(NCc1c(F)cc(F)cc1F)c1ccc2c(c1)N(Cc1cc(F)cc(F)c1)C(=O)C21CCCCC1` [Example 138] has an EC50 of over 10 µM. `Cc1ccc(CNC(=O)c2ccc3c(n2)N(Cc2c(C)cccc2F)C(=O)C3(C)C)o1` [Example 195, 1-(2-fluoro-6-methylbenzyl)-3,3-dimethyl-N-((5-methylfuran-2-yl)methyl)-2-oxo-2,3-dihydro-1H-pyrrolo[2,3-b]pyridine-6-carboxamide] was tested, and the EC50 was 1 to 10 µM. With `CC1(C)C(=O)N(Cc2cc(F)cc(F)c2)c2cc(C(=O)NCc3cccc(C(F)(F)F)c3)ccc21` [Example 45, 1-(3,5-difluorobenzyl)-3,3-dimethyl-2-oxo-N-(3-(trifluoromethyl)benzyl)indoline-6-carboxamide] the EC50 was over 10 µM. For `O=C(NCc1c(F)cc(F)cc1F)c1ccc2c(c1)N(Cc1c(F)cccc1Cl)C(=O)C2(O)c1ccccc1` (centres unmarked) [Example 160, 1-(2-chloro-6-fluorobenzyl)-3-hydroxy-2-oxo-3-phenyl-N-(2,4,6-trifluorobenzyl)indoline-6-carboxamide], the EC50 was over 10 µM. `Cc1ncc(CN2C(=O)C(C)(C)c3ccc(C(=O)NCc4c(F)cc(F)cc4F)cc32)s1` [Example 58, 3,3-dimethyl-1-((2-methylthiazol-5-yl)methyl)-2-oxo-N-(2,4,6-trifluorobenzyl)indoline-6-carboxamide] showed an EC50 of 1 to 10 µM. Work on `CC1(C)C(=O)N(Cc2cc(F)cc(F)c2)c2nc(C(=O)NCc3ccc(C#N)cc3)ccc21` [Example 192, N-(4-cyanobenzyl)-1-(3,5-difluorobenzyl)-3,3-dimethyl-2-oxo-2,3-dihydro-1H-pyrrolo[2,3-b]pyridine-6-carboxamide] yielded an EC50 of 1 to 10 µM. In the case of `Cc1cc(CN2C(=O)C(C)(C)c3ccc(C(=O)NCc4c(F)cc(F)cc4F)nc32)ccn1` [Example 185, 3,3-dimethyl-1-((2-methylpyridin-4-yl)methyl)-2-oxo-N-(2,4,6-trifluorobenzyl)-2,3-dihydro-1H-pyrrolo[2,3-b]pyridine-6-carboxamide], the EC50 is reported as 1 to 10 µM. `CC1(C)C(=O)N(Cc2cc(F)cc(F)c2)c2nc(C(=O)NCc3c(F)cc(F)cc3F)ccc21` [Example 180, 1-(3,5-difluorobenzyl)-3,3-dimethyl-2-oxo-N-(2,4,6-trifluorobenzyl)-2,3-dihydro-1H-pyrrolo[2,3-b]pyridine-6-carboxamide] gave an EC50 of 1 to 10 µM. `CC1(C)C(=O)N(Cc2c(F)cccc2Cl)c2cc(C(=O)NCc3cc4cc([N+](=O)[O-])ccc4o3)ccc21` [Example 94, 1-(2-chloro-6-fluorobenzyl)-3,3-dimethyl-N-((5-nitrobenzofuran-2-yl)methyl)-2-oxoindoline-6-carboxamide] showed an EC50 of 1 to 10 µM. `Cc1ccc(CNC(=O)c2cnc3c(c2)N(Cc2c(C)cccc2F)C(=O)C3(C)C)o1` [Example 196, 1-(2-fluoro-6-methylbenzyl)-3,3-dimethyl-N-((5-methylfuran-2-yl)methyl)-2-oxo-2,3-dihydro-1H-pyrrolo[3,2-b]pyridine-6-carboxamide] was tested, and the EC50 was over 10 µM. In the case of `Cc1ccc(CNC(=O)c2ccc3c(c2)N(Cc2c(F)cccc2Cl)C(=O)C3(C)C)s1` [Example 24, 1-(2-chloro-6-fluorobenzyl)-3,3-dimethyl-N-((5-methylthiophen-2-yl)methyl)-2-oxoindoline-6-carboxamide], the EC50 is reported as 1 to 10 µM. With `CC1(C)C(=O)N(Cc2ccc(F)cc2)c2nc(C(=O)NCc3c(F)cc(F)cc3F)ccc21` [Example 181, 1-(4-fluorobenzyl)-3,3-dimethyl-2-oxo-N-(2,4,6-trifluorobenzyl)-2,3-dihydro-1H-pyrrolo[2,3-b]pyridine-6-carboxamide] the EC50 was over 10 µM. In the case of `CC1(C)C(=O)N(Cc2ccncc2)c2nc(C(=O)NCc3c(F)cc(F)cc3F)ccc21` [Example 184, 3,3-dimethyl-2-oxo-1-(pyridin-4-ylmethyl)-N-(2,4,6-trifluorobenzyl)-2,3-dihydro-1H-pyrrolo[2,3-b]pyridine-6-carboxamide], the EC50 is reported as 1 to 10 µM. `CC1(CCN2CCOCC2)C(=O)N(Cc2cc(F)cc(F)c2)c2cc(C(=O)NCc3c(F)cc(F)cc3F)ccc21` (centres unmarked) [Example 171, 1-(3,5-difluorobenzyl)-3-methyl-3-(2-morpholinoethyl)-2-oxo-N-(2,4,6-trifluorobenzyl)indoline-6-carboxamide] showed an EC50 of over 10 µM. `O=C(NCc1ccco1)c1ccc2sc(=O)n(Cc3c(F)cccc3Cl)c2c1` [Example 201, 3-(2-chloro-6-fluorobenzyl)-N-(furan-2-ylmethyl)-2-oxo-2,3-dihydrobenzo[d]thiazole-5-carboxamide] showed an EC50 of over 10 µM. In the case of `O=C(NCc1ccco1)c1ccc2c(c1)N(C(=O)c1c(F)cccc1Cl)CC2` [Example 135, 1-(2-chloro-6-fluorobenzoyl)-N-(furan-2-ylmethyl)indoline-6-carboxamide], the EC50 is reported as over 10 µM. In the case of `CC1(C)C(=O)N(Cc2cc(F)cc(F)c2)c2cc(C(=O)NCc3nc4ccccc4s3)ccc21` [Example 40, N-(benzo[d]thiazol-2-ylmethyl)-1-(3,5-difluorobenzyl)-3,3-dimethyl-2-oxoindoline-6-carboxamide], the EC50 is reported as 1 to 10 µM. For `CC1(CC#N)C(=O)N(Cc2cc(F)cc(F)c2)c2cc(C(=O)NCc3c(F)cc(F)cc3F)ccc21` (centres unmarked) [Example 178, 3-(cyanomethyl)-1-(3,5-difluorobenzyl)-3-methyl-2-oxo-N-(2,4,6-trifluorobenzyl)indoline-6-carboxamide], the EC50 was 1 to 10 µM. `CC1(O)C(=O)N(Cc2ccccc2F)c2cc(C(=O)NCc3ccco3)ccc21` (centres unmarked) [Example 149, 1-(2-fluorobenzyl)-N-(furan-2-ylmethyl)-3-hydroxy-3-methyl-2-oxoindoline-6-carboxamide] gave an EC50 of over 10 µM. `CC1(C)C(=O)N(Cc2ccccc2F)c2cc(C(=O)NCc3ccco3)ccc21` [Example 1, 1-(2-Fluorobenzyl)-N-(furan-2-ylmethyl)-3,3-dimethyl-2-oxoindoline-6-carboxamide] showed an EC50 of 1 to 10 µM. `CC1(C)C(=O)N(Cc2ccccn2)c2cc(C(=O)NCc3c(F)cc(F)cc3F)ccc21` [Example 99, 3,3-dimethyl-2-oxo-1-(pyridin-2-ylmethyl)-N-(2,4,6-trifluorobenzyl)indoline-6-carboxamide] was tested, and the EC50 was 1 to 10 µM. Compound `Cc1ccnc(CNC(=O)c2ccc3c(c2)N(Cc2c(F)cccc2Cl)C(=O)C3(C)C)c1` [Example 32, 1-(2-chloro-6-fluorobenzyl)-3,3-dimethyl-N-((4-methylpyridin-2-yl)methyl)-2-oxoindoline-6-carboxamide] has an EC50 of over 10 µM. Work on `CC1(C)C(=O)N(Cc2ccccc2)c2cc(C(=O)NCc3ccccc3)ccc21` [Example 10, N,1-dibenzyl-3,3-dimethyl-2-oxoindoline-6-carboxamide] yielded an EC50 of 1 to 10 µM. In the case of `O=C(NCc1c(F)cc(F)cc1F)c1ccc2c(c1)N(Cc1c(F)cccc1Cl)C(=O)C2=O` [Example 142, 1-(2-Chloro-6-fluorobenzyl)-2,3-dioxo-N-(2,4,6-trifluorobenzyl)indoline-6-carboxamide], the EC50 is reported as over 10 µM.
